Seven compounds from PubChem BioAssay AID1117323 can be followed below.

Activity calls are given as the source filed them. No rule for the calls is given here.

The test system of the experiment is SNU-C1 viability, CellTiter-Glo ATP luminescence. In words: SNU-C1 cell viability reduction, dose response, CellTiter-Glo luminescence (AID 1117323). In general terms: ATP-based viability assays read luminescence as a measure of living cells.

By IC50 is commonly meant the midpoint of a concentration-inhibition curve. With `Cc1ccc([N+](=O)[O-])[c]2c1[O][Hg]2`, the IC50 is 202 nM. With `OCCN1CCN(CC/C=C2/c3ccccc3Sc3ccc(C(F)(F)F)cc32)CC1` the figure was 1030 nM. Turning to `CC(=O)[O][Hg][c]1ccccc1`, the 50% inhibitory concentration (IC50) was 192 nM. With `O=C1[O][Bi][O]c2ccccc21` the figure was 15400 nM (inactive). Regarding `CCCCCCCCCCCCCC[N+](C)(C)C`, the half-maximal inhibitory concentration (IC50) was 5.17 nM. As for `CC[C@]1(O)C[C@@H]2CN(CCc3c([nH]c4ccccc34)[C@@](C(=O)OC)(c3cc4c(cc3OC)N(C)[C@H]3[C@@](O)(C(=O)OC)[C@H](OC(C)=O)[C@]5(CC)C=CCN6CC[C@]43[C@@H]65)C2)C1`, the IC50 was > 20000 nM (inactive). Regarding `O=C(O)C1(C(=O)O)CCC1.[NH2-].[NH2-].[Pt+2]`, the IC50 is > 20000 nM (inactive).
